Consider 29 compounds from patent US20220289691A1, “5-AMINO-SUBSTITUTED PYRAZOLES AND TRIAZOLES AS PEST CONTROL AGENTS” (Bayer Aktiengesellschaft, priority 2019, published 2022).

Like-named read-outs stand apart in the source and are kept apart here.

Common to all, as to type: in vivo
One experiment concerns Spodoptera frugiperda. Briefly: Spodoptera frugiperda spray test. The settings on record: foliar, 168 h, maize leaf discs, after 7 days, read-out: efficacy (caterpillars killed). As for the experimental part: Spodoptera frugiperda—Spray Test Solvent: 78.0 parts by weight of acetone • • 1.5 parts by weight of dimethylformamide Emulsifier: alkylaryl polyglycol ether
(§1) To produce a suitable active compound formulation, 1 part by weight of active compound is dissolved using the stated parts by weight of solvent and made up with water containing an emulsifier concentration of 1000 ppm until the desired concentration is attained. To produce further test concentrations, the formulation is diluted with emulsifier-containing water.
Leaf discs of maize (Zea mays) are sprayed with an active compound formulation of the desired concentration and, after drying, populated with caterpillars of the fall armyworm (Spodoptera frugiperda).
After 7 days, the efficacy in % is determined. 100% means that all the caterpillars have been killed; 0% means that no caterpillar has been killed.

The subject of the next experiment is Ctenocephalides felis. Briefly: Ctenocephalides felis oral test. The settings on record: 48 h, 100 ppm in citrated cattle blood, adult cat fleas, after 2 days, read-out: efficacy (kill). Here is the method:
Ctenocephalides felis—Oral Test
Solvent: Dimethyl Sulfoxide
To produce a suitable active compound formulation, 10 mg of active compound are mixed with 0.5 ml of dimethyl sulfoxide. Dilution with citrated cattle blood gives the desired concentration.
About 20 unfed adult cat fleas (Ctenocephalides felis) are placed into a chamber which is closed at the top and bottom with gauze. A metal cylinder whose bottom end is closed with parafilm is placed onto the chamber. The cylinder contains the blood/active compound formulation, which can be imbibed by the fleas through the parafilm membrane.
After 2 days, the kill in % is determined. 100% means that all of the fleas have been killed; 0% means that none of the fleas have been killed.

The next experiment concerns Phaedon cochleariae. The experiment is described as follows: Phaedon cochleariae spray test. The note with it: foliar, 168 h, Chinese cabbage leaf discs, after 7 days, read-out: efficacy (beetle larvae killed). As for the experimental part:
Phaedon cochleariae—Spray Test Solvent: 78.0 parts by weight of acetone • • 1.5 parts by weight of dimethylformamide Emulsifier: alkylaryl polyglycol ether
as §1
Discs of Chinese cabbage leaves (Brassica pekinensis) are sprayed with an active compound formulation of the desired concentration and, after drying, populated with larvae of the mustard beetle (Phaedon cochleariae).
After 7 days, the efficacy in % is determined. 100% means that all the beetle larvae have been killed; 0% means that no beetle larvae have been killed.

A further experiment has as its system Diabrotica balteata. The experiment is described as follows: Diabrotica balteata spray test. The settings on record: 168 h, read-out: efficacy (wheat plant growth); for pest or weed control at 500 g/ha: 500 g/ha (=160 μg/cavity); for pest or weed control at 125 g/ha: 125 g/ha (=40 μg/cavity). As for the experimental part:
Diabrotica balteata—Spray Test Solvent: 78 parts by weight of acetone • • 1.5 parts by weight of dimethylformamide Emulsifier: alkylaryl polyglycol ether
as §1
Pre-swollen wheat grains (Triticum aestivum) are incubated in a multiwell plate filled with agar and a little water for one day (5 seed grains per cavity). The germinated wheat grains are sprayed with an active compound formulation of the desired concentration. Subsequently, each cavity is infected with 10-20 beetle larvae of Diabrotica balteata.
After 7 days, the efficacy in % is determined. 100% means that all wheat plants have grown as in the untreated, uninfected control; 0% means that no wheat plant has grown.

The mark [1] stands for this setting: 100 g/ha (=32 μg/cavity), beetle larvae on wheat, after 7 days.
Setting [2] is: beetle larvae on wheat, after 7 days.

`CC(=O)Nc1nc(-c2ccc(C(C)=NNC(=S)Nc3c(C)cccc3C)cc2)nn1-c1ccc(OC(F)(F)F)cc1` [Compound I-015]: the results for the pest or weed control at 100 g/ha in the experiment on Spodoptera frugiperda and with Phaedon cochleariae were 100% and 83%, respectively. The pest or weed control at 100 ppm with Ctenocephalides felis amounted to 100%.
Turning to `CO[C@@H]1[C@@H](OC)[C@H](C)O[C@@H](OC(=O)Nc2ccc(-c3nc(NC(=O)C4CC4)n(-c4ccc(OC(F)(F)C(F)(F)F)cc4)n3)cc2)[C@@H]1OC` [Compound I-004], the pest or weed control at 500 g/ha in the experiment with Spodoptera frugiperda is 83%; in the experiment with Phaedon cochleariae (500 g/ha) it was 100%. Besides, the pest or weed control at 100 g/ha in the experiment with Phaedon cochleariae came out at 100%.
Take `CCC(=O)Nc1nc(-c2ccc(C=NNC(=S)Nc3ccccc3C(C)C)cc2)nn1-c1ccc(OC(F)(F)F)cc1` [Compound I-012]: the pest or weed control at 100 g/ha in the experiment with Spodoptera frugiperda and with Phaedon cochleariae was 100% in each case.
As to `CC(C)c1ccccc1N1C(=O)CSC1=NC(=O)Nc1ccc(-c2nc(NC3CCOC3)n(-c3ccc(OC(F)(F)F)cc3)n2)cc1` (stereo not shown) [Compound I-045], the pest or weed control at 100 g/ha in the experiment with Spodoptera frugiperda and in the experiment with Diabrotica balteata (setting [1]) was 100% throughout. Besides, the pest or weed control at 500 g/ha with Spodoptera frugiperda and in the experiment with Diabrotica balteata (setting [2]) was 100% throughout.
For the compound `CNc1nc(-c2c(F)cc(C=NNC(=S)Nc3ccccc3C(C)C)cc2F)nn1-c1ccc(OC(F)(F)F)cc1` [Compound I-120], the pest or weed control at 100 g/ha in the experiment on Spodoptera frugiperda and in the experiment with Diabrotica balteata (setting [1]) was 100% in each case.
As to `CNc1cc(-c2ccc(C=NN=C3SCC(=O)N3c3ccccc3C(C)C)cc2)nn1-c1ccc(OC(F)(F)F)cc1` [Compound I-106], the pest or weed control at 100 g/ha in the experiment with Spodoptera frugiperda and in the experiment on Diabrotica balteata (setting [1]) was 100% each time.
Regarding `CC(C)c1ccccc1NC(=S)NN=Cc1ccc(-c2nc(NCCC#N)n(-c3ccc(OC(F)(F)F)cc3)n2)cc1` [Compound I-094], the pest or weed control at 100 g/ha in the experiment on Spodoptera frugiperda and with Diabrotica balteata (setting [1]) was 100% throughout.
Consider `C=CCNc1nc(-c2ccc(C=NNC(=S)Nc3ccccc3C(C)C)cc2)nn1-c1ccc(OC(F)(F)F)cc1` [Compound I-071], for which the pest or weed control at 100 g/ha in the experiment with Spodoptera frugiperda and in the experiment on Diabrotica balteata (setting [1]) was 100% throughout.
As for `CC(C)c1ccccc1NC(=S)NN=Cc1ccc(-c2nc(/N=C/N(C)C)n(-c3ccc(OC(F)(F)F)cc3)n2)cc1` [Compound I-061], the results for the pest or weed control at 100 g/ha with Spodoptera frugiperda and in the experiment on Diabrotica balteata (setting [1]) were 100% and 80%, respectively. The pest or weed control at 500 g/ha in the experiment on Diabrotica balteata (setting [2]) was found to be 80%.
`CC(C)c1ccccc1N1C(=O)CSC1=NC(=O)Nc1ccc(-c2nc(NC(=O)C3CC3)n(-c3ccc(OC(F)(F)F)cc3)n2)cc1` [Compound I-035]: the pest or weed control at 100 g/ha with Spodoptera frugiperda was 100%; with Diabrotica balteata (setting [1]) it was 80%. The pest or weed control at 500 g/ha in the experiment with Diabrotica balteata (setting [2]) came out at 100%.
`CCOC(=O)Nc1nc(-c2ccc(NC(=O)N=C3SCC(=O)N3c3ccccc3C(C)C)cc2)nn1-c1ccc(OC(F)(F)F)cc1` [Compound I-116]: the pest or weed control at 100 g/ha in the experiment on Spodoptera frugiperda and in the experiment on Diabrotica balteata (in Triticum aestivum) was 100% throughout.
Regarding `CNc1nc(-c2ccc(C=NN=C3SCC(=O)N3c3ccccc3C(C)C)cc2)nn1-c1ccc(OC(F)(F)F)cc1` [Compound I-024], the pest or weed control at 100 g/ha in the experiment on Spodoptera frugiperda came out at 100%. In addition, in the experiment with Diabrotica balteata (setting [2]), the pest or weed control at 125 g/ha is 100% and the pest or weed control at 500 g/ha came out at 100%.
As for `CC(C)c1ccccc1NC(=S)NN=Cc1ccc(-c2nc(N3CCOCC3)n(-c3ccc(OC(F)(F)F)cc3)n2)cc1` [Compound I-019], the pest or weed control at 100 g/ha in the experiment on Spodoptera frugiperda was 100%. In the experiment with Diabrotica balteata (setting [2]), the pest or weed control at 125 g/ha is 100% and the pest or weed control at 500 g/ha was found to be 100%.
Consider `CNc1nc(-c2ccc(C=NNC(=S)Nc3cc(OC)ccc3C(C)C)cc2)nn1-c1ccc(OC(F)(F)F)cc1` [Compound I-084], for which the pest or weed control at 100 g/ha in the experiment with Spodoptera frugiperda and in the experiment with Diabrotica balteata (setting [1]) was 100% throughout.
Turning to `CNc1nc(-c2ccc(C=NN3CCCSC3=Nc3ccccc3C(C)C)cc2)nn1-c1ccc(OC(F)(F)C(F)(F)F)cc1` [Compound I-125, 3-{4-[({2-[(2-isopropylphenyl)imino]-1,3-thiazinan-3-yl}imino)methyl]phenyl}-N-methyl-1-[4-(pentafluoroethoxy)phenyl]-1H-1,2,4-triazol-5-amine], the pest or weed control at 100 g/ha in the experiment on Spodoptera frugiperda and in the experiment on Diabrotica balteata (setting [1]) was 100% throughout.
`C=CCNc1nc(-c2ccc(NC(=O)N=C3SCC(=O)N3c3ccccc3C(C)C)cc2)nn1-c1ccc(OC(F)(F)F)cc1` [Compound I-086]: the pest or weed control at 100 g/ha with Spodoptera frugiperda and in the experiment on Diabrotica balteata (setting [1]) was 100% throughout.
Take `CC(C)c1ccccc1NC(=S)NN=Cc1ccc(-c2nc(NC3CCOC3)n(-c3ccc(OC(F)(F)F)cc3)n2)cc1` (stereo not shown) [Compound I-068]: the pest or weed control at 100 g/ha in the experiment on Spodoptera frugiperda and with Diabrotica balteata (setting [1]) was 100% throughout. In addition, the pest or weed control at 500 g/ha with Diabrotica balteata (setting [2]) was 100%.
For the compound `COC(CCNc1nc(-c2ccc(C=NN=C3SCC(=O)N3c3ccccc3C(C)C)cc2)nn1-c1ccc(OC(F)(F)F)cc1)OC` [Compound I-088], the pest or weed control at 100 g/ha in the experiment with Spodoptera frugiperda and with Diabrotica balteata (setting [1]) was 100% throughout.
For `CC(=O)Nc1cc(-c2ccc(C=NNC(=S)Nc3ccccc3C(C)C)cc2)nn1-c1ccc(OC(F)(F)F)cc1` [Compound I-040], the values for the pest or weed control at 100 g/ha with Spodoptera frugiperda and with Diabrotica balteata (setting [1]) were 100% and 80%, respectively. For the same compound, the pest or weed control at 500 g/ha in the experiment with Diabrotica balteata (setting [2]) came to 100%.
As to `CNc1nc(-c2ccc(C=NN=C3SCCN3c3ccccc3C(C)C)cc2)nn1-c1ccc(OC(F)(F)F)cc1` [Compound I-091], the pest or weed control at 100 g/ha in the experiment with Spodoptera frugiperda came to 83%; in the experiment on Diabrotica balteata (setting [1]) it was 100%.
`CC(=O)Nc1nc(-c2ccc(C=NNC(=S)Nc3ccccc3C(C)C)cc2)nn1-c1ccc(OC(F)(F)C(F)(F)F)cc1` [Compound I-096]: the pest or weed control at 100 g/ha in the experiment with Spodoptera frugiperda and with Diabrotica balteata (setting [1]) was 100% throughout.
Consider `COCCNc1nc(-c2ccc(NC(=O)N=C3SCC(=O)N3c3ccccc3C(C)C)cc2)nn1-c1ccc(OC(F)(F)F)cc1` [Compound I-080], for which the pest or weed control at 100 g/ha in the experiment with Spodoptera frugiperda and with Diabrotica balteata (setting [1]) was 100% each time.
For `CCOCCNc1nc(-c2ccc(NC(=O)N=C3SCC(=O)N3c3ccccc3C(C)C)cc2)nn1-c1ccc(OC(F)(F)F)cc1` [Compound I-044], the pest or weed control at 100 g/ha in the experiment on Spodoptera frugiperda worked out at 100%; with Diabrotica balteata (setting [1]), 80%. Also, in the experiment with Diabrotica balteata (setting [2]), the pest or weed control at 500 g/ha is 80%.
Regarding `CC(C)c1ccccc1NC(=S)NN=Cc1ccc(-c2nc(N)n(-c3ccc(OC(F)(F)C(F)(F)F)cc3)n2)cc1` [Compound I-066], the pest or weed control at 100 g/ha in the experiment on Spodoptera frugiperda and in the experiment on Diabrotica balteata (setting [1]) was 100% each time. Also, the pest or weed control at 500 g/ha in the experiment on Diabrotica balteata (setting [2]) is 100%.
For the compound `CCNc1nc(-c2ccc(NC(=O)N=C3SCC(=O)N3c3ccccc3C(C)C)cc2)nn1-c1ccc(OC(F)(F)F)cc1` [Compound I-042], the pest or weed control at 100 g/ha with Spodoptera frugiperda and with Diabrotica balteata (setting [1]) was 100% each time.
Regarding `CC(C)c1ccccc1NC(=S)NN=Cc1ccc(-c2nc(NCCS(C)(=O)=O)n(-c3ccc(OC(F)(F)F)cc3)n2)cc1` [Compound I-093], the pest or weed control at 100 g/ha in the experiment with Spodoptera frugiperda and in the experiment with Diabrotica balteata (setting [1]) was 100% in each case.
On to `CC(=O)Nc1nc(-c2ccc(NC(=O)N=C3SCC(=O)N3c3ccccc3C(C)C)cc2)nn1-c1ccc(OC(F)(F)C(F)(F)F)cc1` [Compound I-054], for which, in the experiment on Spodoptera frugiperda, the pest or weed control at 100 g/ha was found to be 100%. Further, in the experiment with Diabrotica balteata (setting [2]), the pest or weed control at 500 g/ha amounted to 100%.
Consider `COCCNc1nc(-c2ccc(C=NNC(=S)Nc3ccccc3C(C)C)cc2)nn1-c1ccc(OC(F)(F)F)cc1` [Compound I-072], for which the pest or weed control at 100 g/ha with Spodoptera frugiperda and in the experiment with Diabrotica balteata (setting [1]) was 100% in each case.
`CCOC(CNc1nc(-c2ccc(C=NN=C3SCC(=O)N3c3ccccc3C(C)C)cc2)nn1-c1ccc(OC(F)(F)F)cc1)OCC` [Compound I-085]: the pest or weed control at 100 g/ha is 100% with Spodoptera frugiperda and 80% with Diabrotica balteata (setting [1]).
